Measured values: ChEMBL document CHEMBL3301472, “MMV Malaria Box HIV and cytotoxicity screening”

How the values were obtained:
Format in all cases: toxicity, cell-based
[1] = MMV: MTT Cytotoxicity Assay Day 7 pi of Assay #7 (compound washed out Day 1 pi), U87-CD4-CXCR4 cells, % cell death @ 5mM compound; details: human, u87-cd4-cxcr4, 5000 µM
[2] = MMV: MTT Cytotoxicity Assay Day 7 pi of Assay #6 (compound washed out Day 1 pi), U87-CD4-CCR5 cells, % cell death @ 5mM compound; details: human, u87-cd4-ccr5, 5000 µM
[3] = MMV: MTT Cytotoxicity Assay Day 3 pi, U87-CD4-CCR5 cells, % cell death @ 5mM compound; details: human, u87-cd4-ccr5, 5000 µM
[4] = MMV: MTT Cytotoxicity Assay Day 7 pi of Assay #11 (NO washout), U87-CD4-CXCR4 cells, % cell death @ 5mM compound; details: human, u87-cd4-cxcr4, 5000 µM
[5] = MMV: MTT Cytotoxicity Assay Day 3 pi, U87-CD4-CXCR4 cells, % cell death @ 5mM compound; details: human, u87-cd4-cxcr4, 5000 µM
[6] = MMV: MTT Cytotoxicity Assay Day 7 pi of Assay #10 (NO washout), U87-CD4-CCR5 cells, % cell death @ 5mM compound; details: human, u87-cd4-ccr5, 5000 µM

| SMILES | % Cell Death [1] | % Cell Death [2] | % Cell Death [3] | % Cell Death [4] | % Cell Death [5] | % Cell Death [6] |
| --- | --- | --- | --- | --- | --- | --- |
| CCCCCCc1cc(O)c2c3c(c(=O)oc2c1)CCC(C)C3 (centres undefined) | 16 | 16 | 16 | 9 | 20 | 26 |
| CCOC(=O)c1cnc2c(C)cccc2c1Nc1ccc(C(C)=O)cc1 | 78 | 49 | 70 | 80 | 76 | 69 |
| O=C1CC(O)(C(F)(F)C(F)(F)F)Oc2ccccc21 (centres undefined) | -15 | 4 | -14 | 35 | 32 | 17 |
| Cc1nc2ccccc2c(O)c1CC=C(Cl)Cl | 20 | -2 | 19 | -3 | 30 | 26 |
| CCOc1cc(Cl)c(C(C)NC(=O)c2cccc(OC)c2)cc1OCC (centres undefined) | 16 | 10 | -1 | 28 | 37 | 24 |
| O=C(Nc1cccc(C(F)(F)F)c1)c1cc(Cl)ccc1O | 97 | 100 | 95 | 95 | 70 | 124 |
| COc1ccc(C2N(C)c3ccccc3N2C)cc1 | -14 | 16 | -7 | 30 | -15 | 3 |
| CN(C)c1ccc(C(O)(c2ccc(N(C)C)cc2)c2ccc(N(C)C)cc2)cc1 [METHYLROSANILINE] | -2 | 3 | 2 | 71 | 98 | 23 |
| CCOc1ccc(N2C(N)=NC(N)=NC2(C)C)cc1.Cl | 35 | 56 | 56 | -36 | 57 | 135 |
| COc1ccc(-c2nonc2NC(=O)c2cccc(C)c2)cc1OC | -11 | -21 | 13 | -3 | 11 | -7 |
| COc1ccc(C(=O)C(CCC(CNC(C)(C)C)C(=O)c2ccc(OC)cc2)CNC(C)(C)C)cc1 (centres undefined) | 75 | 27 | 94 | 105 | 100 | 137 |
| COC(=O)c1ccc(Cl)c2c1C1C=CCC1C(c1cccc3ccccc13)N2 (centres undefined) | -20 | -5 | -6 | -34 | 40 | -21 |
| COc1ccc(C2=C(c3ccc(OC)cc3)C3(c4ccccc4)C(=O)C2(c2ccccc2)C2C(=O)N(c4ccc(C)cc4)C(=O)C23)cc1 (centres undefined) | 13 | -10 | -42 | -6 | 28 | 41 |
| O=C(Nc1ccc(-c2nc3cc(NC(=O)c4ccc(Cl)cc4)ccc3[nH]2)cc1)c1ccc(Cl)cc1 | -23 | -14 | -28 | -10 | 37 | -18 |
| CC(=O)c1sc(NC(=O)Nc2ccc(C)cc2C)nc1C | -18 | -30 | -1 | 20 | 45 | 31 |
| CCOc1ccc(/C=C/c2nc(=O)c3ccccc3o2)cc1 | -27 | 27 | 41 | 10 | 31 | 21 |
| Cc1cc(=O)oc2c1ccc1oc(C(=O)c3ccccc3)c(C)c12 | -3 | 4 | 10 | -19 | 29 | 35 |
| COc1ccc(-c2cc3c(nn2)-c2ccccc2C3=O)cc1 | 13 | 30 | 71 | 101 | 49 | 75 |
| Oc1ccc(Cl)cc1CNc1nc2ccccc2[nH]1 | -38 | 10 | -44 | 24 | 10 | -8 |
| CCOc1ccc2nc(C)cc(Nc3ccc(N(C)C)cc3)c2c1.Cl | 4 | -13 | -27 | 0 | 57 | 23 |

| SMILES | % Cell Death [1] | % Cell Death [2] | % Cell Death [3] | % Cell Death [4] | % Cell Death [5] | % Cell Death [6] |
| --- | --- | --- | --- | --- | --- | --- |
| O=C(NC1CCCC1)c1ccc(N2CCC(NCc3cccc(C(F)(F)F)c3)CC2)cc1 | 7 | -1 | 4 | 6 | 35 | -4 |
| COc1ccc(Nc2cc(C)nc(NCc3ccccc3)n2)cc1 | 30 | 30 | 41 | 73 | 94 | 92 |
| O=C(Nc1cccc(-c2nc3ccccc3[nH]2)c1)c1cccc(NC(=O)c2ccco2)c1 | -31 | 11 | -8 | -18 | 22 | 20 |
| COc1cc2c3cc1Oc1c(OC)c(OC)cc4c1C(Cc1ccc(O)c(c1)Oc1ccc(cc1)CC3N(C)CC2)N(C)CC4.Cl (centres undefined) | 32 | 3 | -12 | 83 | 36 | 43 |
| Cc1ccc2nc(C)cc(Nc3cccc(C(F)(F)F)c3)c2c1.Cl | -9 | 15 | -13 | 44 | 38 | 72 |
| COc1ccc(CCN2CCC(CN(C)Cc3cnn(-c4ccccc4)c3)CC2)cc1 | 16 | 68 | 33 | 93 | 53 | 110 |
| Cc1ccc(Cn2c(N3CCC(C(=O)NCc4cccs4)CC3)nc3ccccc32)cc1 | 58 | 12 | 5 | 78 | 4 | 18 |
| Fc1ccc2[nH]c3c(NCCCN4CCOCC4)ncnc3c2c1 | 7 | 34 | -1 | 49 | 36 | 38 |
| Oc1ccc(C(=C(Cl)Cl)c2ccc(O)cc2)cc1 | 36 | -14 | 80 | 103 | 75 | 84 |
| COc1ccc(OC)c(C2C3=C(CC(C)(C)CC3=O)N(c3ccc(Cl)c(Cl)c3)C3=C2C(=O)CC(C)(C)C3)c1 | 5 | 28 | 9 | 3 | 31 | -4 |
| Cc1sc(NC(=O)c2ccccc2)c(C(c2cccs2)N2CCN(c3ccccc3)CC2)c1C (centres undefined) | 4 | -19 | -1 | -15 | 45 | 95 |
| COc1cc(OC)cc(C(=O)Nc2ccc(-c3nc4ccccc4[nH]3)cc2)c1 | 55 | 59 | 47 | 116 | 63 | 115 |
| CN1c2ccccc2N(C)C1c1ccc2c(c1)OCO2 | 16 | 10 | -7 | -2 | 3 | 1 |
| CCCCc1c(C)nc2c(OC)cccc2c1O | 17 | 43 | 0 | 46 | 52 | 74 |
| CCOc1ccc2nc(C)cc(Nc3ccc(Br)cc3)c2c1 | 72 | 26 | 82 | 106 | 64 | 108 |
| CC1CCCCN1CCCNC(=O)c1ccc2c(c1)sc1nc(-c3ccc(F)cc3)cn12 (centres undefined) | -50 | 29 | -29 | 61 | 0 | -20 |
| CCOc1ccc(C2N(C)c3ccccc3N2C)cc1 | 98 | 105 | 92 | 100 | 79 | 115 |
| CCOC(=O)c1cn(CC)c2cc(N(C)CCc3ccc(OC)c(OC)c3)c(F)cc2c1=O | -40 | -4 | 22 | -17 | -10 | 27 |
| Clc1ccc2[nH]c3c(NCCCN4CCOCC4)ncnc3c2c1 | 91 | 105 | 110 | 118 | 100 | 141 |
